The results in this text go back to ChEMBL document CHEMBL1149053, “beta-Carbolines from the blue-green alga Dichothrix baueriana” (J Nat Prod, 1994).

One may read the IC90 as the point of the concentration-response curve where the effect stands at 90%. Read a low IC90 as an effect from little substance. A word on the IC50: it is the midpoint of a concentration-inhibition curve. The low end stands for inhibition by little substance, the high end for a need for much substance.

The subject of one assay is Human alphaherpesvirus 2. The assay can be described thus: Antiviral activity against HSV2 clinical isolate. It is filed as functional.
The test system of another assay is LoVo. In words: Cytotoxicity against human LoVo cells. It is filed as functional, cell-based.

The structures appear in SMILES notation. Converted amounts (≈) assume the structure as drawn.

In turn, `Cn1c2cnccc2c2ccc(Cl)cc21` [BAUERINE A] displayed an IC90 in the assay on Human alphaherpesvirus 2 of 2 µg/mL (≈ 9.23 µM). Inhibition in the assay with LoVo was half-maximal at 3 µg/mL (≈ 13.8 µM) (IC50).
The like results for `Cn1c2c(Cl)c(Cl)ccc2c2cc[nH]c(=O)c21` [BAUERINE C] were, in that order, 2.5 µg/mL (≈ 9.36 µM) and 0.03 µg/mL (≈ 0.112 µM).
The compound `Cn1c2cnccc2c2ccc(Cl)c(Cl)c21` [BAUERINE B] had a 90% effect concentration (IC90) in the assay with Human alphaherpesvirus 2 of 3 µg/mL (≈ 11.9 µM). Moreover, half-maximal inhibition with LoVo (IC50) was put at 5 µg/mL (≈ 19.9 µM).
